Experimental data from patent publication US8663668B2, “Preservative for medical devices” (Fresenius Medical Care Deutschland GmbH, priority 2004, dated 2014).

Experiment: antimicrobial effectiveness test (USP 27), disinfectant/preservative effect
Assay type: cell-based
Conditions: additive alone
Description: Within the context of the present invention, preferably poly(hexamethylene)biguanide having a molecular weight of 2900 to 15,000 (PHMB) is used as the biguanide compound. An especially preferred disinfection solution contains PHMB in a concentration of 0.01% to 0.5% by weight, where concentrations of 0.02% to 0.06% by weight are especially advantageous. A neutral buffer containing phosphate, and preferably also containing the following substances is used as the medium: sodium citrate dihydrate, sodium acetate trihydrate, sodium chloride, sodium monohydrogen phosphate, potassium dihydrogen phosphate. Such a solution effectively disinfects and preserves the aforementioned medical devices and is in compliance with the requirements of the “antimicrobial effectiveness tests” described in USP 27 (United States Pharmacopoeia).
An adsorber column of the type IMMUNOSORBA (Fresenius Adsorber Technology GmbH) is used to remove antibodies from blood plasma and binds the antibodies via protein A of Staphylococcus aureus. This adsorber column is filled with a solution according to Example 1.

Q: With `N[C@@H](Cc1c[nH]c2ccccc12)C(=O)O` [Tryptophan, tryptophan] as the molecule, how does the disinfectant effect read?
A: does not have any disinfectant effect
